Article PMC8003295, “The In Vitro Interaction of 12-Oxophytodienoic Acid and Related Conjugated Carbonyl Compounds with Thiol Antioxidants” (Biomolecules, 2021)

Assays:
[1] = biological target: T1, Cyp20-3 (Arabidopsis thaliana, UniProt P34791, C248S); test: ITC (single-site fit, poor fit noted); format: binding
T1 construct: recombinant Cyp20-3 C171S variant, His6-tag not cleaved

[2] = biological target: T2, Cyp20-3 (Arabidopsis thaliana, UniProt P34791, C206S); test: PPIase activity assay (chymotrypsin-coupled), […] 12-OPDA; format: biochemical
T2 construct: recombinant Cyp20-3 C129S variant, His6-tag not cleaved

[3] = biological target: T3, Cyp20-3 (Arabidopsis thaliana, UniProt P34791); test: ITC (single-site fit, poor fit noted); intrinsic fluorescence quenching; PPIase activity; format: binding
T3 construct: recombinant Cyp20-3 WT, His6-tag not cleaved
T3 sequence (P34791 78-260): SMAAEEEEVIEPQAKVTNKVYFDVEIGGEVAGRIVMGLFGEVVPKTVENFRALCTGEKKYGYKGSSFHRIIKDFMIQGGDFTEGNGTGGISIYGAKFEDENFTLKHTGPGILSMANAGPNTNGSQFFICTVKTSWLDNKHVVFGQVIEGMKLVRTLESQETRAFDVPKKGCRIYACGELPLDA

T1 sequence (P34791 78-260 C248S): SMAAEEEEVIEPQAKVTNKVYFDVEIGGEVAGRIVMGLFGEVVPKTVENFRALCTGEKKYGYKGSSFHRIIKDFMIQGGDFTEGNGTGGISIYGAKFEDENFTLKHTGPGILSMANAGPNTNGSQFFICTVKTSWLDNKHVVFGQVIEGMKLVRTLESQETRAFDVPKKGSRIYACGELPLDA
T2 sequence (P34791 78-260 C206S): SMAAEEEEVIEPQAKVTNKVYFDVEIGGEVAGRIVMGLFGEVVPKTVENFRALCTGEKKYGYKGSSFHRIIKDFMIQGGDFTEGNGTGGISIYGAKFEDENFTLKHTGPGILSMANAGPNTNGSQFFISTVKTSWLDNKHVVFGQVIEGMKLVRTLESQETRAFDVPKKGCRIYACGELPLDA

For `CC/C=C\C[C@@H]1C(=O)C=C[C@@H]1CCCCCCCC(=O)O` [12-OPDA, 12-oxophytodienoic acid], the Kd [1] was 26 ± 8 µM, the “PPIase activity assay (chymotrypsin-coupled), 26 μM 12-OPDA” value [2] was 12-OPDA stimulated the activity of oxidized Cyp20-3 WT and C129S to a similar extent and the Kd [3] was 35.7 ± 9 µM.
